Experimental data as given in US7772246B2 (Pfizer Inc., priority 2007, dated 2010).

What follows are molecules tested against T1, b-Raf (Homo sapiens, UniProt P15056, V600E) (assay: Raf cellular assay (phospho-Mek1/2 ELISA in A2058 cells)). Conditions: Table 3; human melanoma A2058 cells (b-Raf mutation), Mek1/2 Ser217/221 phosphorylation, 1 hour incubation; read-out: pMEK IC50.
T1 construct: endogenous in cells; host or cells: A2058 human melanoma cells
Type: cell-based
Protocol: Compounds of the present invention were evaluated for potency against b-Raf using a cellular assay as follows. The activity of Raf kinases in cells is determined by measuring the level of phosphorylation of Mek1/2 at serine 217/221, the site phosphorylated by Raf kinases in vivo. Mek1/2 Ser phosphorylation is measured using anti-phospho-Mek1/2 antibodies (Cell Signaling #9121) in an ELISA format.
Healthy growing human melanoma A2058 cells (harboring a b-Raf mutation) are used for the assay. A2058 cells are grown in 10% FBS DMEM medium. When the cells are near 85%+confluence, the cells are rinsed with PBS once and trypsinized with trypsin/EDTA for 3 minutes. The cells are resuspended in 10% FBS DMEM and are centrifuged down at 1000 rpm for 5 minutes. The cells are resuspended in 10% FBS DMEM and counted on a cell counter. The cells are seeded at 50,000 cells/well in a volume of 100 μL/well in 10% FBS DMEM in a 96 well flat-bottom plate. The negative control wells receive only 100 μL of 10% FBS DMEM medium without cells. The plate is incubated overnight in a cell culture incubator with 5% CO2 at 37° C.
On day 2, testing compounds are prepared in 10% FBS DMEM medium and serially diluted at 1:3 for 11 test concentrations. Each concentration of the compounds is tested in duplicate. The compound solutions are added at 25 μL/well to the corresponding wells in the cell plate, and 25 μL/well of the vehicle (0.5% DMSO in 10% FBS DMEM) is added to the negative control wells (no cells) and the positive control wells (cells without compounds). The plate is incubated for 1 hour in a cell culture incubator with 5% CO2 at 37° C. After 1 hour of incubation, the medium is removed, 100 μL/well of cell lysis buffer is added into the cell plate, and the plate is shaken for 15 minutes at room temperature. After 15 minutes, the cell lysates are transferred to an ELISA plate (pre-coated with anti-Mek1 anti-body, Cell Signaling #2352), and the plate is incubated with gentle shaking for 2 hours at room temperature. After 2 hours, the contents of the wells are aspirated and the wells are washed 4 times with wash buffer. 100 μL of phospho-Mek1/2 detection antibody (Cell Signaling #9121) is added into each well and the plate is incubated with gentle shaking for 1 hour at room temperature. After 1 hour, the wells are aspirated and washed 4 times with wash buffer. 100 μL of anti-rabbit IgG HRP-linked antibody (Cell Signaling #7074) is added to each well, and the plate is incubated with gentle shaking for 1 hour at room temperature. After 1 hour, the contents of the wells are aspirated and the wells are washed 4 times with wash buffer. 100 μL of TMB substrate solution (Sigma #T0440) is added into each well, and the plate is incubated with gentle shaking at room temperature for 10 to 20 minutes. After color development, 100 μL of stop solution (1N hydrochloric acid) is added to each well to terminate color development. The plate is read at 450 nm on an ELISA plate reader.

T1 sequence (P15056 whole entry V600E): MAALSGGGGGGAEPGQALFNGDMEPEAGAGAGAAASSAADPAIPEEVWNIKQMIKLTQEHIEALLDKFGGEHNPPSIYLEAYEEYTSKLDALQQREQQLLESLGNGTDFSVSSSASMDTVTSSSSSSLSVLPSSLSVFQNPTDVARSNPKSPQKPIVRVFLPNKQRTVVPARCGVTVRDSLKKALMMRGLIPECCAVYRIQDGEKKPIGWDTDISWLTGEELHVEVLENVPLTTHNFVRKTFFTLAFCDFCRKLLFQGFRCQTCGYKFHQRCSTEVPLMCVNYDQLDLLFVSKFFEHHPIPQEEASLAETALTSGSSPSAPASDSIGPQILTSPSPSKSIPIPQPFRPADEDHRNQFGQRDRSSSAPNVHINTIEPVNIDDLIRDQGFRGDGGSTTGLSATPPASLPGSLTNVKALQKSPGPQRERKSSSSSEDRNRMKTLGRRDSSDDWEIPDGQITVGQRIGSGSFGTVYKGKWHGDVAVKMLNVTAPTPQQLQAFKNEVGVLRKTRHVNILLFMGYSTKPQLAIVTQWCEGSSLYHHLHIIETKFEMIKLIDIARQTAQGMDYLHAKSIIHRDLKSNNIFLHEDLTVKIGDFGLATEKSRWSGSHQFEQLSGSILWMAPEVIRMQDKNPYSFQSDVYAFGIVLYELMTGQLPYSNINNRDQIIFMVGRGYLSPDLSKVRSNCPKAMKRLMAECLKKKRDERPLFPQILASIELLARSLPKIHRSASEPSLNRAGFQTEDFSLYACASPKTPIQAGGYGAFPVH

Row | Compound | IC50 [µM]
1 | Cc1c[nH]c2ncc(-c3nn(C4CCN(C)CC4)cc3-c3ccnc(NCC(F)F)n3)cc12 [Example B-113, N-(2,2-difluoroethyl)-4-[1-(1-methylpiperidin-4-yl)-3-(3-methyl-1H-pyrrolo[2,3-b]pyridin-5-yl)-1H-pyrazol-4-yl]pyrimidin-2-amine] | 0.00148
2 | Cc1cc(-c2nn(CC(F)F)cc2-c2ccnc(NCCC#N)n2)cnc1N [Example G-7, 3-(4-(3-(6-amino-5-methylpyridin-3-yl)-1-(2,2-difluoroethyl)-1H-pyrazol-4-yl)pyrimidin-2-ylamino)-propanenitrile] | 0.0285
3 | COc1cc(-c2nn([C@H]3C[C@H](F)C3)cc2-c2ccnc(NC[C@H](C)O)n2)cnc1N [Example B-85, (S)-1-(4-(3-(6-amino-5-methoxypyridin-3-yl)-1-((1r,3r)-3-fluorocyclobutyl)-1H-pyrazol-4-yl)pyrimidin-2-ylamino)propan-2-ol] | 0.0219
4 | COc1cc(-c2nn(C3CC3)cc2-c2ccnc(N)n2)cnc1N [Example B-56, 4-[3-(6-amino-5-methoxypyridin-3-yl)-1-cyclopropyl-1H-pyrazol-4-yl]pyrimidin-2-amine] | 0.0833
5 | COc1cc(-c2nn(C3CC3)cc2-c2ccnc(NCC(F)F)n2)cnc1N [Example B-59, 4-[3-(6-amino-5-methoxypyridin-3-yl)-1-cyclopropyl-1H-pyrazol-4-yl]-N-(2,2-difluoroethyl)pyrimidin-2-amine] | 0.00686
6 | Nc1nccc(-c2cn(C3CCNCC3)nc2-c2cnc3[nH]cc(Cl)c3c2)n1 [Example B-63, 4-[3-(3-chloro-1H-pyrrolo[2,3-b]pyridin-5-yl)-1-piperidin-4-yl-1H-pyrazol-4-yl]pyrimidin-2-amine] | 0.0437
7 | C[C@H](O)CNc1nccc(-c2cn(CC(F)F)nc2-c2cnc3[nH]cc(C#N)c3c2)n1 [Example B-103, 5-[1-(2,2-difluoroethyl)-4-(2-{[(2S)-2-hydroxypropyl]amino}pyrimidin-4-yl)-1H-pyrazol-3-yl]-1H-pyrrolo[2,3-b]pyridine-3-carbonitrile] | 3.8
8 | COc1cc(-c2nn(C(F)F)cc2-c2ccnc(NC[C@H](C)O)n2)cnc1N [Example B-41, (2S)-1-({4-[3-(6-amino-5-methoxypyridin-3-yl)-1-(difluoromethyl)-1H-pyrazol-4-yl]pyrimidin-2-yl}amino)propan-2-ol] | 0.0785
9 | CC(C)(C)n1cc(-c2ccnc(N)n2)c(-c2cnc3[nH]cc(Cl)c3c2)n1 [Example B-65, 4-[1-tert-butyl-3-(3-chloro-1H-pyrrolo[2,3-b]pyridin-5-yl)-1H-pyrazol-4-yl]pyrimidin-2-amine] | 0.00904
10 | CC(C)(CO)n1cc(-c2ccnc(NCCC#N)n2)c(-c2cnc3[nH]cc(F)c3c2)n1 [Example B-24, 3-({4-[3-(3-fluoro-1H-pyrrolo[2,3-b]pyridin-5-yl)-1-(2-hydroxy-1,1-dimethylethyl)-1H-pyrazol-4-yl]pyrimidin-2-yl}amino)propanenitrile] | 0.00326
11 | CC(C)(O)CNc1nccc(-c2cn(CC(F)F)nc2-c2cnc3c(c2)CCN3)n1 [Example B-89, 1-(4-(1-(2,2-difluoroethyl)-3-(2,3-dihydro-1H-pyrrolo[2,3-b]pyridin-5-yl)-1H-pyrazol-4-yl)pyrimidin-2-ylamino)-2-methylpropan-2-ol] | 0.284
12 | Cc1c[nH]c2ncc(-c3nn(CC(F)F)cc3-c3ccnc(N)n3)cc12 [Example B-108, 4-[1-(2,2-difluoroethyl)-3-(3-methyl-1H-pyrrolo[2,3-b]pyridin-5-yl)-1H-pyrazol-4-yl]pyrimidin-2-amine] | 0.0112
13 | Cc1c[nH]c2ncc(-c3nn(CC(F)F)cc3-c3ccnc(NC[C@H](C)O)n3)cc12 [Example B-100, (2S)-1-({4-[1-(2,2-difluoroethyl)-3-(3-methyl-1H-pyrrolo[2,3-b]pyridin-5-yl)-1H-pyrazol-4-yl]pyrimidin-2-yl}amino)propan-2-ol] | 0.00429
14 | C[C@H](O)CNc1nccc(-c2cn([C@H]3C[C@@H](F)C3)nc2-c2cnc3[nH]cc(Cl)c3c2)n1 [Example B-84, (S)-1-(4-(3-(3-chloro-1H-pyrrolo[2,3-b]pyridin-5-yl)-1-((1s,3s)-3-fluorocyclobutyl)-1H-pyrazol-4-yl)pyrimidin-2-ylamino)propan-2-ol] | 0.0187
15 | COc1cc(-c2n[nH]cc2-c2ccnc(NCC(F)F)n2)cnc1N [Example B-68, 4-[3-(6-amino-5-methoxypyridin-3-yl)-1H-pyrazol-4-yl]-N-(2,2-difluoroethyl)-pyrimidin-2-amine] | 0.0256

Continued by falling IC50, values first:

Row | IC50 [µM] | Compound
16 | 9.39 | C[C@H](O)CNc1nccc(-c2cn(CC(F)F)nc2-c2ccnc3[nH]ccc23)n1 [Example B-29, (2S)-1-({4-[1-(2,2-difluoroethyl)-3-(1H-pyrrolo[2,3-b]pyridin-4-yl)-1H-pyrazol-4-yl]pyrimidin-2-yl}amino)propan-2-ol]
17 | 1.31 | COc1cc(-c2n[nH]cc2-c2ccnc(N)n2)cnc1N [Example C-2, 4-[3-(6-amino-5-methoxypyridin-3-yl)-1H-pyrazol-4-yl]pyrimidin-2-amine]
18 | 0.538 | Cc1ccc(-c2nn(CC(F)F)cc2-c2ccnc(NCCC#N)n2)cn1 [Example B-28, 3-({4-[1-(2,2-difluoroethyl)-3-(6-methylpyridin-3-yl)-1H-pyrazol-4-yl]pyrimidin-2-yl}amino)propanenitrile]
19 | 0.319 | CC(C)n1cc(-c2ccnc(NC[C@H](C)O)n2)c(-c2cnc(N)c(O)c2)n1 [Example B-45, 2-amino-5-[4-(2-{[(2S)-2-hydroxypropyl]-amino}pyrimidin-4-yl)-1-isopropyl-1H-pyrazol-3-yl]pyridin-3-ol]
20 | 0.235 | C[C@H](O)CNc1nccc(-c2cn(C3COC3)nc2-c2cnc3[nH]cc(Cl)c3c2)n1 [Example B-99, (2S)-1-({4-[3-(3-chloro-1H-pyrrolo[2,3-b]pyridin-5-yl)-1-oxetan-3-yl-1H-pyrazol-4-yl]pyrimidin-2-yl}amino)propan-2-ol]
21 | 0.0482 | Cc1c[nH]c2ncc(-c3nn(C(F)F)cc3-c3ccnc(N)n3)cc12 [Example B-40, 4-[1-(difluoromethyl)-3-(3-methyl-1H-pyrrolo[2,3-b]pyridin-5-yl)-1H-pyrazol-4-yl]pyrimidin-2-amine]
22 | 0.00494 | Cc1n[nH]c2ncc(-c3nn(CC(F)F)cc3-c3ccnc(NCCC#N)n3)cc12 [Example B-91, 3-(4-(1-(2,2-difluoroethyl)-3-(3-methyl-1H-pyrazolo[3,4-b]pyridin-5-yl)-1H-pyrazol-4-yl)pyrimidin-2-ylamino)propanenitrile]
23 | 0.00448 | N#CCCNc1nccc(-c2cn(CC(F)F)nc2-c2cnc3[nH]ccc3c2)n1 [Example B-33, 3-({4-[1-(2,2-difluoroethyl)-3-(1H-pyrrolo[2,3-b]pyridin-5-yl)-1H-pyrazol-4-yl]pyrimidin-2-yl}amino)propanenitrile]
24 | 0.00298 | COc1cc(-c2nn(C3CCOCC3)cc2-c2ccnc(NCCC#N)n2)cnc1N [Example B-69, 3-({4-[3-(6-amino-5-methoxypyridin-3-yl)-1-(tetrahydro-2H-pyran-4-yl)-1H-pyrazol-4-yl]pyrimidin-2-yl}amino)propanenitrile]
25 | 0.00287 | Cc1c[nH]c2ncc(-c3nn(C(C)(C)C)cc3-c3ccnc(NC[C@H](C)O)n3)cc12 [Example B-66, (2S)-1-({4-[1-tert-butyl-3-(3-methyl-1H-pyrrolo[2,3-b]pyridin-5-yl)-1H-pyrazol-4-yl]pyrimidin-2-yl}amino)propan-2-ol]
26 | 0.0028 | Cc1n[nH]c2ncc(-c3nn(C(C)(C)C)cc3-c3ccnc(NCCC#N)n3)cc12 [Example B-71, 3-({4-[1-tert-butyl-3-(3-methyl-1H-pyrazolo[3,4-b]pyridin-5-yl)-1H-pyrazol-4-yl]pyrimidin-2-yl}amino)propanenitrile]
27 | 0.000836 | CC(C)(CO)n1cc(-c2ccnc(NCCC#N)n2)c(-c2cnc3[nH]cc(Cl)c3c2)n1 [Example E-5, 3-({4-[3-(3-chloro-1H-pyrrolo[2,3-b]pyridin-5-yl)-1-(2-hydroxy-1,1-dimethylethyl)-1H-pyrazol-4-yl]pyrimidin-2-yl}amino)-propanenitrile]
